The text below walks through data of patent US20250092016A1, “COMPOUNDS AND COMPOSITIONS FOR THE TREATMENT OF CORONAVIRAL RELATED DISEASES” (priority 2021, published 2025).

pIC50: −log10 of the molar value.

In the first assay the target is SARS-CoV-2 main protease (M^pro) (Severe acute respiratory syndrome coronavirus 2, UniProt P0DTD1). Description: Rapid-Fire MS Biochemical Assay measuring Mpro activity (5 nM Mpro). Particulars: Rapid-Fire Assay IC50, Table 1B, Mpro inhibition, 5 μM substrate peptide, 120 min.
The pIC50 is −log10 of the IC50, conventionally taken in molar units. For the compound `CC1CC(N2CC(C#N)N(c3cncc4ccccc34)C2=O)C1` (single isomer, unassigned) [Compound 120c], the negative logarithm of the IC50 (pIC50) was < 6.00.

Still in this assay, the particulars now being: Table 1B, Mpro inhibition, 5 μM substrate peptide, 120 min, read-out: Rapid-Fire Assay IC50.
`CC(C)(O)c1cccc(N2C[C@@H](C#N)N(c3cncc4ccccc34)C2=O)c1` (single isomer, unassigned) [Compound 69b]: the negative-log IC50 (pIC50) was < 6.00.

As for `CC(C)n1cc(N2C[C@H](C#N)N(c3cncc4ccccc34)C2=O)cn1` (single isomer, unassigned) [Compound 64a], the pIC50 was > 7.70.

As for `CS(=O)(=O)c1ccc2cncc(N3C(=O)N(c4ccc(F)c(F)c4)C[C@@H]3C#N)c2c1` (single isomer, unassigned) [Compound 85a], the pIC50 is > 7.70.

Consider `N#C[C@@H]1CN([C@@H]2CCN(C(=O)CO)C2)C(=O)N1c1cncc2ccccc12` (single isomer, unassigned) [Compound 25b], for which the negative logarithm of the IC50 (pIC50) is < 6.00.

Take `N#C[C@H]1CN(c2cnnc(C(F)(F)F)c2)C(=O)N1c1cncc2ccccc12` (single isomer, unassigned) [Compound 13a]: the pIC50 is > 7.70.

As for `N#C[C@@H]1CN(c2nc(Cl)c[nH]2)C(=O)N1c1cncc2ccccc12` (single isomer, unassigned) [Compound 119b], the pIC50 is < 6.00.

As to `Cc1ccc(C#N)c(N2CC(C#N)N(c3cncc4ccccc34)C2=O)c1` (racemic) [Compound 116, 1-(2-cyano-5-methylphenyl)-3-(isoquinolin-4-yl)-2-oxoimidazolidine-4-carbonitrile], the pIC50 is > 7.70.

Take `COc1cnc(C(F)(F)F)nc1N1C[C@H](C#N)N(c2cncc3ccccc23)C1=O` (single isomer, unassigned) [Compound 31a]: the pIC50 was 6.70 to 7.70.

Take `CC(C)(C)CN1C[C@@H](C#N)N(c2cncc3ccccc23)C1=O` (single isomer, unassigned) [Compound 140b]: the pIC50 is < 6.00.

As for `COc1ccc(C(F)(F)F)cc1N1C[C@H](C#N)N(c2cncc3ccccc23)C1=O` (single isomer, unassigned) [Compound 17a], the negative-log IC50 (pIC50) was > 7.70.

Take `N#C[C@H]1CN(c2cccc(Cl)n2)C(=O)N1c1cncc2ccccc12` (single isomer, unassigned) [Compound 111a]: the pIC50 is > 7.70.

Consider `COc1cc(C(F)(F)F)ccc1N1C[C@H](C#N)N(c2cncc3ccccc23)C1=O` (single isomer, unassigned) [Compound 12a], for which the negative logarithm of the IC50 (pIC50) is > 7.70.

As for `N#C[C@@H]1CN(c2cc(F)ccc2F)C(=O)N1c1cncc2ccccc12` (single isomer, unassigned) [Compound 109b], the negative-log IC50 (pIC50) is < 6.00.

Turning to `N#C[C@@H]1CN(c2nccc(C(F)(F)F)n2)C(=O)N1c1cncc2ccccc12` (single isomer, unassigned) [Compound 49b], the pIC50 is < 6.00.

As for `Cc1ccc(OC(F)F)cc1N1C[C@H](C#N)N(c2cncc3ccccc23)C1=O` (single isomer, unassigned) [Compound 101a], the negative logarithm of the IC50 (pIC50) was > 7.70.

Turning to `N#C[C@H]1CN(c2cccc(F)c2)C(=O)N1c1cncc2ccccc12` (single isomer, unassigned) [Compound 76a], the pIC50 is > 7.70.

On to `N#C[C@@H]1CN(C2CC3(C2)CC(F)(F)C3)C(=O)N1c1cncc2ccccc12` (single isomer, unassigned) [Compound 127b], for which the negative-log IC50 (pIC50) was < 6.00.

With `N#C[C@@H]1CN(c2cccc(OC(F)F)c2)C(=O)N1c1cncc2ccccc12` (single isomer, unassigned) [Compound 89b], the pIC50 is < 6.00.

On to `Cc1cnc(C(F)(F)F)nc1N1C[C@@H](C#N)N(c2cncc3ccccc23)C1=O` (single isomer, unassigned) [Compound 62b], for which the pIC50 was < 6.00.

On to `CC(C)(O)c1cccc(N2C[C@H](C#N)N(c3cncc4ccccc34)C2=O)c1` (single isomer, unassigned) [Compound 69a], for which the negative-log IC50 (pIC50) was 6.70 to 7.70.

`N#C[C@H]1CN([C@H]2C[C@@H](C(F)(F)F)C2)C(=O)N1c1cncc2ccccc12` [Compound 45b, (R)-3-(isoquinolin-4-yl)-2-oxo-1-((1s,3S)-3-(trifluoromethyl)cyclobutyl)imidazolidine-4-carbonitrile]: the pIC50 was 6.00 to 6.70.

In the case of `C[C@H]1[C@H](C#N)N(c2cncc3ccccc23)C(=O)N1c1cccc(Cl)c1` (single isomer, unassigned) [Compound 43a], the pIC50 is > 7.70.

For `Cc1ccnc(N2C[C@@H](C#N)N(c3cncc4ccccc34)C2=O)n1` (single isomer, unassigned) [Compound 53b], the negative logarithm of the IC50 (pIC50) is < 6.00.

As for `COc1ccc(C(F)(F)F)nc1N1C[C@H](C#N)N(c2cncc3ccccc23)C1=O` (single isomer, unassigned) [Compound 47a], the pIC50 is 6.70 to 7.70.

With `Cc1ccc(Cl)cc1N1C[C@@H](C#N)N(c2cncc3ccccc23)C1=O` (single isomer, unassigned) [Compound 114b], the pIC50 is < 6.00.

On to `COc1nc(C(F)(F)F)ccc1N1C[C@H](C#N)N(c2cncc3ccccc23)C1=O` (single isomer, unassigned) [Compound 95a], for which the pIC50 was > 7.70.

Consider `COc1ccc(C#N)cc1N1C[C@H](C#N)N(c2cncc3ccccc23)C1=O` (single isomer, unassigned) [Compound 15a], for which the pIC50 is > 7.70.

Regarding `N#C[C@H]1CN(C23CC(F)(C2)C3)C(=O)N1c1cncc2ccccc12` (single isomer, unassigned) [Compound 139a], the pIC50 was > 7.70.

With `N#CC1CN(c2nc(Cl)c[nH]2)C(=O)N1c1cncc2ccccc12` (racemic) [Compound 119, 1-(4-chloro-1H-imidazol-2-yl)-3-(isoquinolin-4-yl)-2-oxoimidazolidine-4-carbonitrile], the negative-log IC50 (pIC50) was 6.70 to 7.70.

As to `N#Cc1ccc(Cl)cc1N1CC(C#N)N(c2cncc3ccccc23)C1=O` (racemic) [Compound 20, 1-(5-chloro-2-cyanophenyl)-3-(isoquinolin-4-yl)-2-oxoimidazolidine-4-carbonitrile], the negative-log IC50 (pIC50) is > 7.70.

For `N#CC1CN([C@H]2CC[C@H](C(F)(F)F)CC2)C(=O)N1c1cncc2ccccc12` (some centres unmarked) [Compound 128, 3-(isoquinolin-4-yl)-2-oxo-1-((1 r,4r)-4-(trifluoromethyl)cyclohexyl)imidazolidine-4-carbonitrile], the pIC50 was > 7.70.

For `N#CC1CN(c2cccc(Cl)c2)C(=O)N1c1cncc2ccc(C(N)=O)cc12` (centres unmarked) [Compound 35, 4-(3-(3-chlorophenyl)-5-cyano-2-oxoimidazolidin-1-yl)isoquinoline-6-carboxamide], the pIC50 was > 7.70.

As to `Cc1ncccc1N1CC(C#N)N(c2cncc3ccccc23)C1=O` (racemic) [Compound 74, 3-(isoquinolin-4-yl)-1-(2-methylpyridin-3-yl)-2-oxoimidazolidine-4-carbonitrile], the negative-log IC50 (pIC50) was 6.00 to 6.70.

As to `N#C[C@H]1CN(c2cccc(C(F)F)c2)C(=O)N1c1cncc2ccccc12` (single isomer, unassigned) [Compound 22a], the pIC50 was > 7.70.

Take `COc1ccc(Cl)cc1N1C[C@H](C#N)N(c2cncc3ccccc23)C1=O` (single isomer, unassigned) [Compound 115a]: the pIC50 is > 7.70.

Regarding `N#C[C@H]1CN(c2cccc3cn[nH]c23)C(=O)N1c1cncc2ccccc12` (single isomer, unassigned) [Compound 63a], the pIC50 is > 7.70.

On to `Cc1cc(N2C[C@H](C#N)N(c3cncc4ccccc34)C2=O)ccn1` (single isomer, unassigned) [Compound 44a], for which the pIC50 was 6.70 to 7.70.

Turning to `N#C[C@H]1CN([C@H]2C[C@@H](C3CC3)C2)C(=O)N1c1cncc2ccccc12` [Compound 124a, (R)-1-((1s,3S)-3-cyclopropylcyclobutyl)-3-(isoquinolin-4-yl)-2-oxoimidazolidine-4-carbonitrile], the pIC50 is > 7.70.

In the case of `N#CC1CN(c2cccc(Cl)c2)C(=O)N1c1cncc2ccc(C(=O)O)cc12` (racemic) [Compound 33, 4-(3-(3-chlorophenyl)-5-cyano-2-oxoimidazolidin-1-yl)isoquinoline-6-carboxylic acid], the negative logarithm of the IC50 (pIC50) is > 7.70.

Turning to `N#C[C@@H]1CN(c2cccc(OC(F)(F)F)c2)C(=O)N1c1cncc2ccccc12` (single isomer, unassigned) [Compound 92b], the pIC50 is 6.00 to 6.70.

For `Cc1cc(N2C[C@H](C#N)N(c3cncc4ccccc34)C2=O)cnc1C` (single isomer, unassigned) [Compound 98a], the pIC50 was > 7.70.

Regarding `N#C[C@H]1CN(c2cccc(OC(F)F)c2)C(=O)N1c1cncc2ccccc12` (single isomer, unassigned) [Compound 89a], the pIC50 is > 7.70.

On to `N#C[C@@H]1CN(c2ccccc2F)C(=O)N1c1cncc2ccccc12` (single isomer, unassigned) [Compound 56b], for which the negative logarithm of the IC50 (pIC50) was < 6.00.

For the compound `N#C[C@@H]1CN(c2ccc(OC(F)F)cc2)C(=O)N1c1cncc2ccccc12` (single isomer, unassigned) [Compound 71b], the negative logarithm of the IC50 (pIC50) was < 6.00.

Turning to `N#CC1CN(c2cccc(OC(F)(F)F)c2)C(=O)N1c1cncc2ccccc12` (racemic) [Compound 92, 3-(isoquinolin-4-yl)-2-oxo-1-(3-(trifluoromethoxy)phenyl)imidazolidine-4-carbonitrile], the pIC50 was > 7.70.

`N#CC1CN(C2CN(CC(F)(F)F)C2)C(=O)N1c1cncc2ccccc12` (racemic) [Compound 133, 3-(isoquinolin-4-yl)-2-oxo-1-(1-(2,2,2-trifluoroethyl)azetidin-3-yl)imidazolidine-4-carbonitrile]: the pIC50 is > 7.70.

As for `CC(C)[C@H]1C[C@H](N2C[C@@H](C#N)N(c3cncc4ccccc34)C2=O)C1` [Compound 123d, (S)-1-((1r,3S)-3-isopropylcyclobutyl)-3-(isoquinolin-4-yl)-2-oxoimidazolidine-4-carbonitrile], the negative logarithm of the IC50 (pIC50) is < 6.00.

Regarding `N#C[C@H]1CN(c2cc(C(F)(F)F)cnn2)C(=O)N1c1cncc2ccccc12` (single isomer, unassigned) [Compound 30a], the pIC50 was > 7.70.

With `N#Cc1cc(C(F)(F)F)ncc1N1C[C@@H](C#N)N(c2cncc3ccccc23)C1=O` (single isomer, unassigned) [Compound 18b], the pIC50 is < 6.00.
